Results on 9 compounds are retold here after PubChem BioAssay (NCI).

“And” between values parts separate entries of the source, which are not always exact repeats. Identical values can stand only once.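 Five concentrations, 48 hours, 96-well plates. Abbreviation: GI50, concentration required for 50% inhibition of growth. TGI marks complete inhibition of growth.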 Some results are limits rather than exact numbers.

What all share (test): growth of human tumour cells (NCI), 48 h
Experiment [1] concerns HOP-92 NSCLC.
Experiment [2] deals with SR leukemia.
Experiment [3] has as its system OVCAR-8 ovarian.
In experiment [4] the test system is SF-295 CNS.
For experiment [5], the system named is RXF 393 renal.
In experiment [6] the test system is U251 CNS.
Experiment [7] deals with UACC-257 melanoma.
Experiment [8] has as its system SN12C renal.
Experiment [9] has as its system HOP-62 NSCLC.
Experiment [10] concerns HL-60(TB) leukemia.

`Cc1c(-c2c(-c3ccc(F)o3)sc3ncnc(O[C@H](Cc4ccccc4OCc4ccnn4CC(F)(F)F)C(=O)O)c23)ccc(OCCN2CCN(C)CC2)c1Cl`: the GI50 in [1] is 4.57 µM; in experiment [2], 0.162 µM; in [3] it was 5.82 µM; in experiment [4], 3.55 µM; in experiment [5], 2.77 µM; in experiment [6], 4.59 µM. In addition, the GI50 in [7] was 5.24 µM; in experiment [8], 4.05 µM; in experiment [9], 5.31 µM; in experiment [10], 0.0173 µM. Further, the TGI in experiment [1] turned out to be 9.7 µM; in experiment [2], 2.01 µM; in experiment [3], 15.5 µM; in [4], 7.55 µM; in [5] it was 6.1 µM; in experiment [6], 10.7 µM. For the same compound, the TGI was 12.9 µM in experiment [7], 9.62 µM in experiment [8], 14.3 µM in [9] and 0.195 µM in experiment [10].

For the compound `COC(=O)/C([Se]c1c(C)cc(C)cc1C)=C(\[Se]c1c(C)cc(C)cc1C)C(=O)OC`, the TGI in experiment [1], in [2], in [3], in experiment [4], in [5] and in [6] was > 100 µM throughout. The TGI in experiment [7], in experiment [8], in [9] and in [10] was > 100 µM throughout.

Turning to `O=C1C(Cl)=C(Nc2cccc(Cl)c2)C(=O)N1Cc1ccccc1Cl`, the GI50 is 8.28 µM in experiment [1]; 0.26 µM in experiment [2]; 1.82 µM in experiment [3]; 0.476 µM in experiment [4]; 1.26 µM in experiment [5]; 2.95 µM in experiment [6]. In addition, the GI50 in experiment [7] was 12.8 µM; in experiment [8], 2.32 µM; in [9], 15.8 µM; in experiment [10], 3.15 µM. The TGI in experiment [1] was 32.4 µM; in experiment [2], 0.645 µM; in experiment [3], 17.1 µM; in experiment [4] it was 20.9 µM; in [5], 6.53 µM; in experiment [6] it was 11.3 µM. Also, the TGI in experiment [7] worked out at 30.9 µM; in experiment [8] it was 8 µM; in [9] it was 37.9 µM; in [10], 19.6 µM.

Turning to `O=C(CN1CCN(CCCOc2c(-c3ccccc3)oc3ccccc3c2=O)CC1)Nc1ccc(Cl)cc1C(=O)c1ccccc1Cl`, the GI50 in experiment [1] was 1.05 µM; in experiment [2], 3.14 µM; in experiment [3], 4.33 µM; in experiment [4], 4.79 µM; in experiment [5], 2.57 µM; in experiment [6], 5.86 µM. Besides, the GI50 in experiment [7] was 4.59 µM; in experiment [8], 4.98 µM; in [9], 10.4 µM; in [10] it was > 100 µM. For the same compound, the TGI in experiment [1] turned out to be 6.6 µM; in experiment [2] it was 8.17 µM; in experiment [3] it was 22.2 µM; in [4] it was 18.2 µM; in experiment [5], 8.79 µM; in experiment [6], 19.1 µM. Also, the TGI in experiment [7] was 20.5 µM; in experiment [8], 18 µM; in [9], 28.1 µM; in experiment [10], > 100 µM.

With `CCOC(=O)N1CCc2cc(OC)c(OC)c3c2c1cc1cc(OC)c(OC)cc13`, the TGI in [1] was 44.8 µM; in [2], > 38.6 µM; in experiment [3], > 100 µM; in experiment [4], 35.2 µM; in [5], 12.1 µM; in experiment [6], 67.1 µM. For the same compound, the TGI in [7] is > 81.7 µM; in experiment [8] it was > 100 µM; in experiment [9], > 83.6 µM; in experiment [10] it was > 100 µM.

Consider `COc1ncc(-c2ccc3nccc(-c4ccnnc4)c3c2)cc1NS(=O)(=O)c1ccc(F)cc1F`, for which the GI50 in experiment [1] was 0.00109 µM and < 0.01 µM; in [2], 0.0169 µM and 0.0203 µM; in experiment [3], 0.0191 µM and 0.0173 µM; in [4], 0.00537 µM and < 0.01 µM; in experiment [5], 0.0048 µM and < 0.01 µM; in experiment [6], 0.0194 µM and < 0.0147 µM. The GI50 in experiment [7] is 0.00627 µM and < 0.01 µM; in experiment [8] it was 0.0111 µM and < 0.01 µM; in experiment [9] it was 0.00803 µM and < 0.0122 µM; in experiment [10], 0.0224 µM and < 0.01 µM. For the same compound, the TGI was 0.00872 µM and < 0.01 µM in experiment [1]; 0.499 µM and 0.345 µM in [2]; > 5.42 µM and 3.25 µM in [3]; 0.0595 µM and 0.0299 µM in experiment [4]; 0.0436 µM and 0.0351 µM in [5]; > 3.43 µM and 0.923 µM in experiment [6]. The TGI in experiment [7] is 0.378 µM and 0.0615 µM; in experiment [8] it was > 100 µM; in [9], 1.93 µM and 3.02 µM; in experiment [10], > 4.01 µM and 1.21 µM.

Consider `O=C(/C=C/c1cccnc1)NCCCCC1CCCN(C(=O)c2ccccc2)C1` (stereo not given), for which the GI50 in experiment [1] is > 100 µM; in experiment [2], 0.0617 µM; in [3] it was < 0.01 µM; in experiment [4], < 0.0474 µM; in experiment [5], > 100 µM; in [6], < 0.01 µM. Moreover, the GI50 in [7] is > 76.8 µM; in experiment [8], < 0.01 µM; in experiment [9] it was > 94.2 µM; in experiment [10] it was 44.7 µM. Moreover, the TGI was > 100 µM in experiment [1]; > 100 µM in experiment [2]; > 100 µM in [3]; > 87.1 µM in experiment [4]; > 100 µM in experiment [5]; > 100 µM in experiment [6]. In addition, the TGI in experiment [7], in [8], in [9] and in [10] was > 100 µM in each case.

For `BrC1=CC=C2NC=CC3=CC=NC1C32` (stereo not given), the TGI is 71.2 µM in experiment [1]; 26 µM in experiment [2]; > 94 µM in [3]; > 100 µM in [4]; 51.7 µM in [5]; > 100 µM in experiment [6]. Also, the TGI in experiment [7] is 98.8 µM; in experiment [8], > 100 µM; in experiment [9], > 100 µM; in [10], 12.1 µM.

In the case of `C=C(CN1C(=O)[C@H]2CCCN2C(=O)c2ccccc21)c1ccc(C(=O)O)cc1`, the GI50 in experiment [1], in experiment [2], in experiment [3], in experiment [4], in [5] and in [6] was > 100 µM each time. Further, the GI50 in [7], in [8], in experiment [9] and in experiment [10] was > 100 µM in each case. Also, the TGI in experiment [1], in [2], in [3], in experiment [4], in [5] and in experiment [6] was > 100 µM throughout. The TGI in experiment [7], in [8], in experiment [9] and in [10] was > 100 µM in each case.
